Experimental data taken from ChEMBL document CHEMBL3616372, “A novel sesquiterpene and three new phenolic compounds from the rhizomes of Acorus tatarinowii Schott” (Bioorg Med Chem Lett, 2015).

Assays:
Assay type in all cases: cell-based
[1] = target: Sodium-dependent serotonin transporter (Homo sapiens) (UniProt P31645); assay: Inhibition of human SERT expressed in HEK293 cells using 4-[4-(Dimethylamino)phenyl]-1-methyl pyridinium as substrate assessed as fluorescent intensity at 1 uM after 3 hrs relative to control
[2] = target: Sodium-dependent serotonin transporter (Homo sapiens) (UniProt P31645); assay: Inhibition of human SERT expressed in HEK293 cells using 4-[4-(Dimethylamino)phenyl]-1-methyl pyridinium as substrate assessed as fluorescent intensity at 0.1 uM after 3 hrs relative to control
[3] = target: Sodium-dependent serotonin transporter (Homo sapiens) (UniProt P31645); assay: Inhibition of human SERT expressed in HEK293 cells using 4-[4-(Dimethylamino)phenyl]-1-methyl pyridinium as substrate assessed as fluorescent intensity at 10 uM after 3 hrs relative to control

Sodium-dependent serotonin transporter (Homo sapiens), sequence (P31645 whole entry, looked up): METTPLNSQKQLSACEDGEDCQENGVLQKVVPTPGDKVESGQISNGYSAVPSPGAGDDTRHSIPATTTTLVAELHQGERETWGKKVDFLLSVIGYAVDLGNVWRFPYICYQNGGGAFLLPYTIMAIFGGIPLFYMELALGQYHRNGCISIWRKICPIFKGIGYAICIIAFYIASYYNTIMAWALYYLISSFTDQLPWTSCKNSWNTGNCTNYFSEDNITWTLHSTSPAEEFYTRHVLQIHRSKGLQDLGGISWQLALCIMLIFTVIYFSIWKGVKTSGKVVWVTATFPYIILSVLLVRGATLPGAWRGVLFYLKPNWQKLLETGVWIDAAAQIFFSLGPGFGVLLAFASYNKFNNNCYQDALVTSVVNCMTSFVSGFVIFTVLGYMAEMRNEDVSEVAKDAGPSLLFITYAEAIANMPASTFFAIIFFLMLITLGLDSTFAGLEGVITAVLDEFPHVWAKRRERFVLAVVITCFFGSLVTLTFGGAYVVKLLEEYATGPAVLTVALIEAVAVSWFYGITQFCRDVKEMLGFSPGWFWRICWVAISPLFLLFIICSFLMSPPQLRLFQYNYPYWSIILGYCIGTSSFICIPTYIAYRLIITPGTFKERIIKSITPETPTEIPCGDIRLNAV

SMILES	RFU [1]	RFU [2]	RFU [3]
CC(C)C[C@]12C[C@]3(O)O[C@@]1(OC(=O)C[C@H]2C)[C@H](O)[C@]3(C)O	0.883	0.858	0.928
COc1cc([C@H]2Oc3c(OC)cc(C(=O)O)cc3[C@@H]2CO)ccc1O	1.01	1.04	1.09
COC(=O)CCCNC(=O)/C=C/c1ccc(O)c(OC)c1	1.07	1.02	1.04
COc1cc(C[C@@H](CO)c2cc(C(=O)O)cc(OC)c2O)ccc1O	0.997	1.01	0.873
CN1c2ccccc2C(NCCCCCCC(=O)O)c2ccc(Cl)cc2S1(=O)=O (centres undefined)	1.11	–	–
COc1cc([C@@H]2Oc3c(OC)cc(C(=O)O)cc3[C@H]2CO)ccc1O	1.03	0.984	1.06
COC(=O)CCCNC(=O)/C=C\c1ccc(O)c(OC)c1	1.08	1.04	1.06
